Data reported in publication PMC4977052, “On the Utility of ToxCast™ and ToxPi as Methods for Identifying New Obesogens” (Environmental Health Perspectives, 2016).
Like-named read-outs stand apart in the source and are kept apart here.

Experiments:
PPARγ = conditions: cited from earlier work; for AC50: PPARγ, NA = not active; for PPARγ agonists: EC10, ATG: AC10, ToxCast 2014 release; for EC50: gain AC50, ToxCast 2014 release, read-out: PPARγ agonists: EC50, ATG
3T3-L1 preadipocytes = assay: 3T3-L1 adipogenesis assay (lipid accumulation, adipogenic gene expression); format: cell-based; conditions: for Adipogenesis 3T3-L1 (result in words): 0.02-20 μM, 5 days after MDI induction; for Adipogenic gene expression (Fabp4, Fsp27, Lpl), QPCR: 3T3-L1, Figure 2A; for Induction of adipogenesis in 3T3-L1 preadipocytes, doses: lipid accumulation, Nile red/Hoechst, Figure 2A
How it was run: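 After 2-day MDI induction with biotin and pantothenate, 3T3-L1 cells were treated 5 days with chemicals at 0.02–20 μM (0.1% DMSO; 10 μM if toxic). Lipid read as Nile red/Hoechst fluorescence ratio; adipogenic genes by QPCR, 2^ΔΔCt versus 36b4, normalized to DMSO.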

GAL4-mPPARγ = molecular target: T1, GAL4-mPPARγ (Mus musculus, UniProt P37238); assay: GAL4-mPPARγ activation, transient transfection luciferase reporter in COS7 cells; format: cell-based; conditions: for Activation of GAL4-PPARγ (text): COS7, 100 μM through 0.137 μM; for EC50: COS7, ligands 24 hr, nonlinear regression variable slope, spirodiclofen constrained at top dose, read-out: PPARγ agonists: EC50, Fig 1A / Fig 4A; for PPARγ agonists: EC10, Fig 1A / Fig 4A: COS7, computed from EC50 in GraphPad Quick Calc
T1 construct: expressed in transfected cells; host or cells: COS7
T1 sequence (P37238 with tags, fused parts or gaps limits assumed): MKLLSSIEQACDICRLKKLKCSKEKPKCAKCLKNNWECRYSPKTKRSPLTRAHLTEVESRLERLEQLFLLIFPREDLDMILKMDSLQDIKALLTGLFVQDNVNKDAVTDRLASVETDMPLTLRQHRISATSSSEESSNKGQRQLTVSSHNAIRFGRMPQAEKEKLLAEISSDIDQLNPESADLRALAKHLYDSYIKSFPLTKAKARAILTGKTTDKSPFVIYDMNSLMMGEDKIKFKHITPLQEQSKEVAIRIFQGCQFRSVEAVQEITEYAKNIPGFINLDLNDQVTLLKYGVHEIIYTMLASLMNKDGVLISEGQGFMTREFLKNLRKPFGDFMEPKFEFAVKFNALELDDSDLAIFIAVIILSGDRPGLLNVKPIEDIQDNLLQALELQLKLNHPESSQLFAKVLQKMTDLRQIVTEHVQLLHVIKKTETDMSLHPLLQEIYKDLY

[1] = ref Filer et al. 2014, read-out: ATG Agonist AC50, 2014 Release
[2] = ref Knudsen et al. 2011, read-out: ATG Agonist AC50, 2011 Release
[3] = Cos-7 transient transfection, PPARγ activation or antagonism assays (Table 1, Table S6)

| SMILES | AC50 (PPARγ; [1]) | AC50 (PPARγ; [2]) | Adipogenesis 3T3-L1 (result in words) (3T3-L1 preadipocytes) | Activation of GAL4-PPARγ (text) (GAL4-mPPARγ) | PPARγ agonists: EC10, ATG (PPARγ; ref Filer et al. 2014) | EC50 (PPARγ; ref Filer et al. 2014) | Activation COS7 (result in words), ToxCast PPARγ list (GAL4-mPPARγ) | Activation of GAL4-PPARγ (text) (GAL4-mPPARγ; listed as quinoxyfen) | EC50 (GAL4-mPPARγ) | PPARγ agonists: EC10, Fig 1A / Fig 4A (GAL4-mPPARγ) | AC50 (GAL4-mPPARγ; Cos-7 transient transfection) | Activation COS7 (result in words), ToxCast PPARγ list (GAL4-mPPARγ; [3]) | Activation COS7 (result in words), ToxPi chemicals (GAL4-mPPARγ; Cos-7 transient transfection, PPARγ or RXRα activation assays (Table 2)) | Adipogenic gene expression (Fabp4, Fsp27, Lpl), QPCR (3T3-L1 preadipocytes) | Induction of adipogenesis in 3T3-L1 preadipocytes, doses (3T3-L1 preadipocytes) | AC50 (GAL4-mPPARγ; read-out: Activation AC50 (PPARγ activators), Cos-7 transient transfection) | Lipid accumulation: TOXIC mark in place of bar (3T3-L1 preadipocytes) | Concentration toxic to 3T3-L1 cells (3T3-L1 preadipocytes; mouse, 5 days) |
| --- | --- | --- | --- | --- | --- | --- | --- | --- | --- | --- | --- | --- | --- | --- | --- | --- | --- | --- |
| O=[N+]([O-])c1cc(C(F)(F)F)c(Cl)c([N+](=O)[O-])c1Nc1ncc(C(F)(F)F)cc1Cl [Fluazinam] | 1200 nM | 510 nM | Negative | did not activate PPARγ | – | – | – | – | – | – | – | – | – | – | – | – | – | – |
| Fc1ccc(Oc2ccnc3cc(Cl)cc(Cl)c23)cc1 [Quinoxyfen] | 5100 nM | 6600 nM | Positive | weakly active at 100 μM and 33 μM doses | 3980 nM | 5120 nM | Inactive | activated PPARγ | 33400 nM | 14240 nM | 33400 nM | PPARγ Activator | PPARγ activator | – | – | – | – | – |
| CCC(C)(C)C(=O)OC1=C(c2ccc(Cl)cc2Cl)C(=O)OC12CCCCC2 [Spirodiclofen] | 1900 nM | 3600 nM | Positive | activated GAL-PPARγ | 100 nM | 1850 nM | – | – | 12800 nM | 7270 nM | – | PPARγ activator | – | increases | induced adipogenesis at all doses tested | 12800 nM | – | – |
| CCC(C)(NC(=O)c1cc(Cl)c(C)c(Cl)c1)C(=O)CCl (stereo not shown) [Zoxamide] | 1300 nM | 1500 nM | Positive | activated GAL-PPARγ | 180 nM | 1270 nM | – | – | 1310 nM | 310 nM | 1310 nM | PPARγ activator | – | increases | induced adipogenesis at the lowest dose | – | TOXIC | ≥ 10 µM |
